Experimental data from patent US20250368627A1, “PYRAZOLESULFONAMIDES AS ANTITUMOR AGENTS” (Peloton Therapeutics, Inc., a fully owned subsidiary of …, priority 2019, published 2025).

Experiments:
[1] = molecular target: T1, DDB1DB/DCAF15 and RBM39 R1R2 complex (Homo sapiens, UniProt Q14498+Q66K64); assay: DCAF15 RBM39 Complex Formation Assay (FRET); type: binding; details: FRET ratio Em 665/Em 615, incubated overnight at 4° C.
T1 construct: Amino acids 150 to 331 of RBM39 were cloned into pGEX4T3; GST (from vector pGEX4T3); TEV cleavage site (N); made in house; host or cells: DDB1DB/His-DCAF15: baculovirus/Sf9 co-expression; RBM39 R1R2: E. coli (pGEX4T3)
T1 sequence (Q66K64 whole entry, the tested form may be a part): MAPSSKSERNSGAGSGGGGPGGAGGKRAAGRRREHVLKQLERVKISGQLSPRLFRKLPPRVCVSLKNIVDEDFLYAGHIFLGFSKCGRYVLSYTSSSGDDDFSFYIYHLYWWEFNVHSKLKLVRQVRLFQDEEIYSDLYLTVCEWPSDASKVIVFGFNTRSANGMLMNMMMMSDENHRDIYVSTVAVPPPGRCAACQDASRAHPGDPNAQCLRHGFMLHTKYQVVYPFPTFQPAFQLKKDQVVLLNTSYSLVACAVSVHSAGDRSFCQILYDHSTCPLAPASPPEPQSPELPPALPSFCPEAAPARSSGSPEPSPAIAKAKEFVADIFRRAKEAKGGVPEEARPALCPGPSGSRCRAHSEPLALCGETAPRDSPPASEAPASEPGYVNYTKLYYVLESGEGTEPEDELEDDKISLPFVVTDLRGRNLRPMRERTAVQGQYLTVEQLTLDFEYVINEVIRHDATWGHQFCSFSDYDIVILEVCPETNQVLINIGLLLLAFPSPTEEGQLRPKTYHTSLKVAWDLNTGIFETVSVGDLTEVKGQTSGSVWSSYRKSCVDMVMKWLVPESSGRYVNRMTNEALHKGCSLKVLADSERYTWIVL
T1 sequence (Q14498 150-331): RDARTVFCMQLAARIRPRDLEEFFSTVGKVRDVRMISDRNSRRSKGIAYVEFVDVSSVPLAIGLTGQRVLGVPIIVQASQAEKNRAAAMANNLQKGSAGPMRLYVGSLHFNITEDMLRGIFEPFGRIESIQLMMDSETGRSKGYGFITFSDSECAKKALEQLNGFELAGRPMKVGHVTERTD
T1 sequence (Q16531 with tags, fused parts or gaps DEL396-708 partner): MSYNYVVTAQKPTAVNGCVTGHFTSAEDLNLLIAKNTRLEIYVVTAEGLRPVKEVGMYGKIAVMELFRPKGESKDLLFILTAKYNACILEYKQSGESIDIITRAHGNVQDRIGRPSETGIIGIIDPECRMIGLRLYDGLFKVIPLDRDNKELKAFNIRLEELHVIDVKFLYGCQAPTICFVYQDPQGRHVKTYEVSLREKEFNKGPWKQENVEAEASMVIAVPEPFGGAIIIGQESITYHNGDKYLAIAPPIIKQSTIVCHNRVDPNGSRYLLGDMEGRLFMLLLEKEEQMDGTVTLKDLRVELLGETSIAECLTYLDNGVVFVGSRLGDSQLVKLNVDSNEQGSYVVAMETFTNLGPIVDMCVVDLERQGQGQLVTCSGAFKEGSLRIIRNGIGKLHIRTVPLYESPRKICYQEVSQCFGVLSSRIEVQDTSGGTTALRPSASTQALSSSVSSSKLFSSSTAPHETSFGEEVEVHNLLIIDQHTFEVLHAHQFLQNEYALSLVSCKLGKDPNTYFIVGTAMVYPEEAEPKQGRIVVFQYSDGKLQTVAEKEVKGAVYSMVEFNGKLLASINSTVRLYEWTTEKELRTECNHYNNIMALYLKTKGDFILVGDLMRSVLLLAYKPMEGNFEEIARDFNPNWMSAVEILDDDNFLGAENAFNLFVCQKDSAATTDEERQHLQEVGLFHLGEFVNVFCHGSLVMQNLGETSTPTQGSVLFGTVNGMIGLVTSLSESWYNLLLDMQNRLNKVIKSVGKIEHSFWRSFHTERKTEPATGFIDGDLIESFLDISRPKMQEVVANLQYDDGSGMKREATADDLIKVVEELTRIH
Method in brief: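 Ternary complex formation read by TR-FRET (Em 665/615, excitation 340 nm) after overnight incubation at 4° C of 20 nM baculovirus DDB1DB/His-DCAF15 and 50 nM E. coli RBM39 RRM1-RRM2 FLAG fragment with 14-point, 3-fold compound dilutions from 1 μM; EC50 from 4-parameter fit.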

[2] = tested on: HCT116 human colorectal carcinoma cells; assay: CellTiter-Glo Luminescent Cell Viability Assay; type: cell-based; details: HCT-116, 72 h, 3 days
Method in brief: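 HCT116 cells were exposed for 3 days to compound in triplicate at final concentrations of 5 to 0.0002 […] (1:3 dilutions). Viability was read by CellTiter-Glo luminescence, and IC50 values were calculated.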

| IC50 [1] [nM] | EC50 [2] [nM] | Structure (SMILES) |
| --- | --- | --- |
| < 250 | 250 to 1000 | N#Cc1c[nH]c2c(NS(=O)(=O)c3cnn(CC4CC4)c3)ccc(Cl)c12 [Compound 123, N-(4-chloro-3-cyano-1H-indol-7-yl)-1-(cyclopropylmethyl)pyrazole-4-sulfonamide] |
| < 250 | < 250 | N#Cc1c[nH]c2c(NS(=O)(=O)c3cnn(CF)c3)ccc(Cl)c12 [Compound 124, N-(4-chloro-3-cyano-1H-indol-7-yl)-1-(fluoromethyl)pyrazole-4-sulfonamide] |
| < 250 | 250 to 1000 | N#Cc1c[nH]c2c(NS(=O)(=O)c3cnn(C4COC4)c3)ccc(Cl)c12 [Compound 125, N-(4-chloro-3-cyano-1H-indol-7-yl)-1-(oxetan-3-yl)pyrazole-4-sulfonamide] |
| < 250 | 250 to 1000 | CCn1cc(S(=O)(=O)Nc2ccc(Cl)c3c(C#N)c[nH]c23)cn1 [Compound 127, N-(4-chloro-3-cyano-1H-indol-7-yl)-1-ethyl-pyrazole-4-sulfonamide] |
| < 250 | > 1000 | Cc1ccc(NS(=O)(=O)c2cnn(CC(=O)O)c2)c2[nH]cc(C#N)c12 [Compound 134, 2-[4-[(3-cyano-4-methyl-1H-indol-7-yl)sulfamoyl]pyrazol-1-yl]acetic acid] |
| < 250 | < 250 | [2H]C([2H])([2H])n1cc(S(=O)(=O)Nc2ccc(Cl)c3c(C#N)c[nH]c23)cn1 [Compound 135, N-(4-chloro-3-cyano-1H-indol-7-yl)-1-(trideuteriomethyl)pyrazole-4-sulfonamide] |
| < 250 | > 1000 | Cc1ccc(NS(=O)(=O)c2cnn(CC(N)=O)c2)c2[nH]cc(C#N)c12 [Compound 141, 2-[4-[(3-cyano-4-methyl-1H-indol-7-yl)sulfamoyl]pyrazol-1-yl]acetamide] |
| < 250 | 250 to 1000 | Cc1ccc(NS(=O)(=O)c2cnn(CC3(C#N)CC3)c2)c2[nH]cc(C#N)c12 [Compound 145, N-(3-cyano-4-methyl-1H-indol-7-yl)-1-((1-cyanocyclopropyl)methyl)-1H-pyrazole-4-sulfonamide] |
| < 250 | > 1000 | N#Cc1c[nH]c2c(NS(=O)(=O)c3cnn(C4CCNC4=O)c3)ccc(Cl)c12 (centres unmarked) [Compound 147, N-(4-chloro-3-cyano-1H-indol-7-yl)-1-(2-oxopyrrolidin-3-yl)pyrazole-4-sulfonamide] |
| < 250 | > 1000 | N#Cc1c[nH]c2c(NS(=O)(=O)c3cnn([C@H]4CNC[C@H]4F)c3)ccc(Cl)c12 [Compound 152, N-(4-chloro-3-cyano-1H-indol-7-yl)-1-[(3S,4R)-4-fluoropyrrolidin-3-yl]pyrazole-4-sulfonamide] |
| < 250 | 250 to 1000 | CC(C)(C(N)=O)n1cc(S(=O)(=O)Nc2ccc(Cl)c3c(C#N)c[nH]c23)cn1 [Compound 154, 2-[4-[(4-chloro-3-cyano-1H-indol-7-yl)sulfamoyl]pyrazol-1-yl]-2-methyl-propanamide] |
| < 250 | 250 to 1000 | N#CCC1(n2cc(S(=O)(=O)Nc3ccc(Cl)c4c(C#N)c[nH]c34)cn2)COC1 [Compound 158, N-(4-chloro-3-cyano-1H-indol-7-yl)-1-[3-(cyanomethyl)oxetan-3-yl]pyrazole-4-sulfonamide] |

More lines, now with the values behind:

| Structure (SMILES) | IC50 [1] [nM] | EC50 [2] [nM] |
| --- | --- | --- |
| Cc1ccc(NS(=O)(=O)c2cnn(C)c2)c2[nH]cc(F)c12 [Compound 126, N-(3-fluoro-4-methyl-1H-indol-7-yl)-1-methyl-pyrazole-4-sulfonamide] | 250 to 1000 | 250 to 1000 |
| Cc1ccc(NS(=O)(=O)c2cnn(C3(C)COC3)c2F)c2[nH]cc(C#N)c12 [Compound 128, N-(3-cyano-4-methyl-1H-indol-7-yl)-5-fluoro-1-(3-methyloxetan-3-yl)pyrazole-4-sulfonamide] | < 250 | < 250 |
| Cn1cc(S(=O)(=O)Nc2cccc3c(Cl)c(F)[nH]c23)cn1 [Compound 129, N-(3-chloro-2-fluoro-1H-indol-7-yl)-1-methyl-pyrazole-4-sulfonamide] | < 250 | > 1000 |
| CC1(n2ncc(S(=O)(=O)Nc3ccc(Cl)c4c(C#N)c[nH]c34)c2F)COC1 [Compound 130, N-(4-chloro-3-cyano-1H-indol-7-yl)-5-fluoro-1-(3-methyloxetan-3-yl)pyrazole-4-sulfonamide] | < 250 | 250 to 1000 |
| COC(=O)Cn1cc(S(=O)(=O)Nc2ccc(C)c3c(C#N)c[nH]c23)cn1 [Compound 133, methyl 2-[4-[(3-cyano-4-methyl-1H-indol-7-yl)sulfamoyl]pyrazol-1-yl]acetate] | < 250 | > 1000 |
| Cc1ccc(NS(=O)(=O)c2cnn(CC(=O)NC3CC(F)(F)C3)c2)c2[nH]cc(C#N)c12 [Compound 137, 2-[4-[(3-cyano-4-methyl-1H-indol-7-yl)sulfamoyl]pyrazol-1-yl]-N-(3,3-difluorocyclobutyl)acetamide] | < 250 | > 1000 |
| Cc1ccc(NS(=O)(=O)c2cnn(CC(=O)N3C[C@@H](F)[C@@H](F)C3)c2)c2[nH]cc(C#N)c12 [Compound 138, N-(3-cyano-4-methyl-1H-indol-7-yl)-1-[2-[(3R,4S)-3,4-difluoropyrrolidin-1-yl]-2-oxo-ethyl]pyrazole-4-sulfonamide] | < 250 | > 1000 |
| CNC(=O)Cn1cc(S(=O)(=O)Nc2ccc(C)c3c(C#N)c[nH]c23)cn1 [Compound 139, 2-[4-[(3-cyano-4-methyl-1H-indol-7-yl)sulfamoyl]pyrazol-1-yl]-N-methyl-acetamide] | < 250 | > 1000 |
| Cc1ccc(NS(=O)(=O)c2cnn(CC(=O)N(C)C)c2)c2[nH]cc(C#N)c12 [Compound 140, 2-[4-[(3-cyano-4-methyl-1H-indol-7-yl)sulfamoyl]pyrazol-1-yl]-N,N-dimethyl-acetamide] | 250 to 1000 | > 1000 |
| Cc1ccc(NS(=O)(=O)c2cnn(CC(=O)N3CCCC3)c2)c2[nH]cc(C#N)c12 [Compound 142, N-(3-cyano-4-methyl-1H-indol-7-yl)-1-(2-oxo-2-pyrrolidin-1-yl-ethyl)pyrazole-4-sulfonamide] | < 250 | > 1000 |
| O=S(=O)(Nc1ccc(Cl)c2c(Cl)c[nH]c12)c1cnn(C2COC2)c1 [Compound 143, N-(3,4-dichloro-1H-indol-7-yl)-1-(oxetan-3-yl)pyrazole-4-sulfonamide] | < 250 | < 250 |
| Cc1ccc(NS(=O)(=O)c2cnn(C3COC3)c2F)c2[nH]cc(C#N)c12 [Compound 144, N-(3-cyano-4-methyl-1H-indol-7-yl)-5-fluoro-1-(oxetan-3-yl)pyrazole-4-sulfonamide] | < 250 | 250 to 1000 |
| Cc1ccc(NS(=O)(=O)c2cnn(C3CCNC3=O)c2)c2[nH]cc(C#N)c12 (centres unmarked) [Compound 146, N-(3-cyano-4-methyl-1H-indol-7-yl)-1-(2-oxopyrrolidin-3-yl)pyrazole-4-sulfonamide] | < 250 | > 1000 |
| Cc1ccc(NS(=O)(=O)c2cn(C)nc2F)c2[nH]cc(C#N)c12 [Compound 148, N-(3-cyano-4-methyl-1H-indol-7-yl)-3-fluoro-1-methyl-pyrazole-4-sulfonamide] | < 250 | 250 to 1000 |
| Cc1ccc(NS(=O)(=O)c2cnn(C)c2C(F)F)c2[nH]cc(C#N)c12 [Compound 149, N-(3-cyano-4-methyl-1H-indol-7-yl)-5-(difluoromethyl)-1-methyl-pyrazole-4-sulfonamide] | < 250 | 250 to 1000 |
| Cn1ncc(S(=O)(=O)Nc2ccc(Cl)c3c(C#N)c[nH]c23)c1C(F)F [Compound 150, N-(4-chloro-3-cyano-1H-indol-7-yl)-5-(difluoromethyl)-1-methyl-pyrazole-4-sulfonamide] | < 250 | 250 to 1000 |
| Cc1ccc(NS(=O)(=O)c2cnn([C@H]3CNC[C@H]3F)c2)c2[nH]cc(C#N)c12 [Compound 151, N-(3-cyano-4-methyl-1H-indol-7-yl)-1-[(3S,4R)-4-fluoropyrrolidin-3-yl]pyrazole-4-sulfonamide] | < 250 | > 1000 |
| Cc1ccc(NS(=O)(=O)c2cnn([C@H]3CN(C(=O)OC(C)(C)C)C[C@H]3F)c2)c2[nH]cc(C#N)c12 [Compound 153, tert-butyl (3S,4R)-3-[4-[(3-cyano-4-methyl-1H-indol-7-yl)sulfamoyl]pyrazol-1-yl]-4-fluoro-pyrrolidine-1-carboxylate] | < 250 | > 1000 |
| Cc1ccc(NS(=O)(=O)c2cnn(C)c2Cl)c2[nH]cc(C#N)c12 [Compound 155, 5-chloro-N-(3-cyano-4-methyl-1H-indol-7-yl)-1-methyl-pyrazole-4-sulfonamide] | < 250 | < 250 |
| Cn1ncc(S(=O)(=O)Nc2ccc(Cl)c3c(C#N)c[nH]c23)c1Cl [Compound 156, 5-chloro-N-(4-chloro-3-cyano-1H-indol-7-yl)-1-methyl-pyrazole-4-sulfonamide] | < 250 | 250 to 1000 |
| Cc1ccc(NS(=O)(=O)c2cnn(C3(CC#N)COC3)c2)c2[nH]cc(C#N)c12 [Compound 157, N-(3-cyano-4-methyl-1H-indol-7-yl)-1-[3-(cyanomethyl)oxetan-3-yl]pyrazole-4-sulfonamide] | < 250 | 250 to 1000 |
| O=S(=O)(Nc1ccc(Cl)c2c(Cl)c[nH]c12)c1cn[nH]c1 [Compound 159, N-(3,4-dichloro-1H-indol-7-yl)-1H-pyrazole-4-sulfonamide] | < 250 | < 250 |
